From patent US4794174A, “5'deoxy-5'-substituted adenosines” (Southern Research Institute, priority 1987, dated 1988)
Entries after “also recorded” stand apart in the source; their conditions may differ.

Legend:
[1] = target: T1, AdoMet-DC from MRC5 Cells (Homo sapiens, UniProt P17707); assay: Effect of compounds on AdoMet-DC from MRC5 cells (crude enzyme preparation); type: biochemical; settings: AdoMet 30 μM, read-out: ID50 (the source's name)
T1 construct: Effect of Compounds on AdoMet-DC from MRC5 Cells; endogenous in cells; host or cells: MRC5 cells (crude enzyme preparation)
T1 sequence (P17707 68-334 limits assumed): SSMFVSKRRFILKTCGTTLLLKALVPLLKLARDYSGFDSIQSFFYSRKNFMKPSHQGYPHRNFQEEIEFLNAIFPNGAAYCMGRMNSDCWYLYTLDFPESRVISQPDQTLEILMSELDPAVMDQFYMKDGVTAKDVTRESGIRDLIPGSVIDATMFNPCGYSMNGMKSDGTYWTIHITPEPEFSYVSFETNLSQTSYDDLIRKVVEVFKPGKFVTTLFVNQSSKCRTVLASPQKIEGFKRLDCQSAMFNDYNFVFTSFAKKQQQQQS
T1 sequence (P17707 1-67 limits assumed): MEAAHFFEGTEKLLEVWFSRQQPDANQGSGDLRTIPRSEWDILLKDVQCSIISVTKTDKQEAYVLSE
Description: Effect of Compounds on AdoMet-DC from MRC5 Cells
mixture contained AdoMet at a concentration of 30 μM. Each inhibitor
was tested at a series of concentrations.

[2] = system: L1210 Cells; assay: Polyamine levels in L1210 cells treated with 25; type: cell-based; settings: for Polyamine Content, Putrescine / Polyamine Content, Spermidine / Polyamine Content, Spermine: +100 μM
Text: (§1) Polyamine Levels in L1210 Cells Treated with --25.

[3] = system: L1210 Cells; assay: Cell number of L1210 cells treated with 25; type: cell-based; settings: 96 hrs; +100 μM
Text: as §1

[4] = system: HCMV; assay: In vitro antiviral activity against cytomegalovirus: HCMV yields in MRC5 cell monolayer cultures; type: cell-based
Description: The Effects of --25 on HCMV Yields in MRC5
*Treatment with --25 began 72 hours prior to virus adsorption. Culture
fluids were replaced with fresh drug and medium 24 hours before virus
infection, immediately following virus infection, and 3 days p.i.

SMILES: CN(CCNC(=O)NN)C[C@H]1O[C@@H](n2cnc3c(N)ncnc32)[C@H](O)[C@@H]1O [Compound 16, 5'-Deoxy-5'-[N-methyl-N-[2-(hydrazinecarboxamido)ethyl]aminoadenosine, sesquisulfate dihydrate]
- IC50 [1]: 600 nM

SMILES: CN(CCCNN)C[C@H]1O[C@@H](n2cnc3c(N)ncnc32)[C@H](O)[C@@H]1O [Compound 25, 5'-Deoxy-5'-[N-methyl-N-(3-hydrazinopropyl)]aminoadenosine sesquisulfate 1.8H2 O.0.1EtOH]
- IC50 [1]: 8 nM
- Polyamine Content, Putrescine ([2]; 24 hrs): 3.16 umol/10^6 Cells
- Polyamine Content, Spermidine ([2]; 24 hrs): 0.58 umol/10^6 Cells
- Polyamine Content, Spermine ([2]; 24 hrs): 0.20 umol/10^6 Cells
- Polyamine Content, Putrescine ([2]; 48 hrs): 4.91 umol/10^6 Cells
- Polyamine Content, Spermidine ([2]; 48 hrs): 0.78 umol/10^6 Cells
- Polyamine Content, Spermine ([2]; 48 hrs): 0.16 umol/10^6 Cells
- Polyamine Content, Putrescine ([2]; 96 hrs): 5.69 umol/10^6 Cells
- Polyamine Content, Spermidine ([2]; 96 hrs): 0.65 umol/10^6 Cells
- Polyamine Content, Spermine ([2]; 96 hrs): 0.19 umol/10^6 Cells
- effect on spermidine, spermine and putrescine levels ([2]; in words, Table 4): decrease in spermidine and spermine levels; also recorded: increase in putrescine levels
- Cell Number × 10^-5 per mL [3]: 17 × 10^-5 per mL
- CMV Yield (PFU/ml) ([4]; 3.2 μM): 5.8 PFU/ml
- CMV Yield (log10 PFU/ml) ([4]; 3.2 μM): 5.8 × 10^5 log10 PFU/ml
- CMV Yield (PFU/ml) ([4]; 10 μM): 5.8 PFU/ml
- CMV Yield (log10 PFU/ml) ([4]; 10 μM): 6.3 × 10^5 log10 PFU/ml
- CMV Yield (PFU/ml) ([4]; 32 μM): 5.8 PFU/ml
- CMV Yield (log10 PFU/ml) ([4]; 32 μM): 5.8 × 10^5 log10 PFU/ml
- CMV Yield (PFU/ml) ([4]; 100 μM): 5.6 PFU/ml
- CMV Yield (log10 PFU/ml) ([4]; 100 μM): 4.2 × 10^5 log10 PFU/ml
- CMV Yield (PFU/ml) ([4]; 320 μM): 5.1 PFU/ml
- CMV Yield (log10 PFU/ml) ([4]; 320 μM): 1.2 × 10^5 log10 PFU/ml
- CMV Yield (PFU/ml) ([4]; 1000 μM): 2.2 PFU/ml
- CMV Yield (log10 PFU/ml) ([4]; 1000 μM): 1.4 × 10^2 log10 PFU/ml
- inhibition at 10 µM ([4]; Human betaherpesvirus 5, MRC5, 10 μM, read-out: Reduction (%) of CPE at Time of Virus Harvest): 0%
- inhibition at 100 µM ([4]; Human betaherpesvirus 5, MRC5, 100 μM, read-out: Reduction (%) of CPE at Time of Virus Harvest): 0%
- inhibition at 320 µM ([4]; Human betaherpesvirus 5, MRC5, 320 μM, read-out: Reduction (%) of CPE at Time of Virus Harvest): 0%

SMILES: CN(CCCNC(=S)NN)C[C@H]1O[C@@H](n2cnc3c(N)ncnc32)[C@@H]2OC(C)(C)O[C@@H]21 [Compound 22, 2',3'-O-Methylethylidene-5'-deoxy-5'-[N-methyl-N-[3-(hydrazinethiocarboxamido)propyl]]aminoadenosine]
- IC50 [1]: 1800 nM
